Experimental data as given in a melting point compilation (Tetko et al.; mined from patent text by program, amines drawn as free bases though some values may be those of a salt).

Structure (SMILES) | melting point [°C]
COc1ccc(CCc2ccc(NC(=O)C(=O)c3cc(Cl)ccc3O)cc2)cc1OC | 128 to 130
CC(=O)Oc1c(C)cc(C=CC(=O)Nc2cnc3c(C)cc(C)cc3c2-c2ccccc2Cl)c(C)c1C | 233 to 234
CC1Cc2cc3c(cc2C(c2ccc(N)cc2)=NN1)OCO3 (centres undefined) | 118 to 120
C=CCc1cc(Nc2ccn(-c3ccccc3)n2)cc(CC=C)c1OC(C)=O | 110 to 111
CCCC1=C(C(=O)O)C(CC)n2ncc(C(=O)OCC)c2N1 (centres undefined) | 160 to 161
CN1C(C(=O)NC2CCC(O)CC2)C(c2cccc(Cl)c2F)C2(C(=O)Nc3cc(Cl)ccc32)C1CC(C)(C)C (centres undefined) | 188
Cc1cccc2nc(C(C)Nc3ncnc4c3ncn4COCC[Si](C)(C)C)n(-c3cccc(C(N)=O)c3)c(=O)c12 (centres undefined) | 195 to 197
CC(C)(C)OC(=O)Nc1cc(N2CCOCC2)c(I)cc1N | 139 to 143
CCSCCCN(C)c1c(S(=O)(=O)C(F)(F)F)c(C#N)nn1-c1c(Cl)cc(C(F)(F)F)cc1Cl | 89
COC1CN2[C@H]3CC[C@@H]2[C@@H]1[C@@H](c1ccc(Cl)c(Cl)c1)C3 (some centres undefined) | 139 to 141
CCN(CC)CC(=C1NCCCS1)[N+](=O)[O-] | 68 to 69
CS(=O)c1n[nH]c(-c2cc(C(C)(C)C)c(O)c(C(C)(C)C)c2)n1 (centres undefined) | 135 to 145
COC(=O)C(=O)c1ccc(OCCCCOc2ccc3ccccc3c2)cc1 | 93 to 95
Cn1cc(C2=C(c3cn(CCCO)c4ccccc34)C(=O)NC2=O)c2ccccc21 | 185 to 187
CC(Cc1cccc(N)c1)(NC=O)c1ccccc1 (centres undefined) | 114 to 115
CCOC(=O)c1cnn2c1nc(N(CC)CC)c1cnc3c(cnn3CC)c12 | 170 to 172
CC(=O)OC1=C(c2nnn(Cc3ccccc3)n2)N(C)S(=O)(=O)c2ccccc21 | 173
c1ccc(-c2cn3cnnc3cn2)cc1 | 231 to 233
O=C1c2ccccc2-n2cnc(Br)c2[C@@H]2CCCN12 | 225 to 226
N#CSc1ccc(N)c(N)c1 | 108 to 110
C1=c2ccccc2=NCO1 | 247 to 249
O=C(NN=Cc1ccc(Cl)cc1)c1cccnc1 | 188 to 190
Nc1c(Cl)cc(C(=O)C=Cc2ccncc2)c2c1OCCO2 | 209 to 211
CC(=O)Nc1cc(O)c(C(=O)O)cc1NC(=N)N | 334 to 357
Clc1cc(CCc2ccccn2)c2oc(-c3cnccn3)nc2c1 | 160 to 161

Structure (SMILES) | melting point [°C]
NC(=O)N1c2ccccc2CC(O)c2ccccc21 (centres undefined) | 70.4 to 101
CC1(C)CC(=O)C2C(=NC3=C(C(=O)CC(C)(C)C3)C2c2ccc(C#N)c([N+](=O)[O-])c2)C1 (centres undefined) | 274 to 275
CS(=O)(=O)N(Cc1cccnc1)c1ccc(Cl)cc1Cl | 180 to 186
COC(=O)c1cc(C(C)=O)ccc1OCCCC(=O)O | 111 to 113
CCOC(=O)CCC(=O)c1ccc(CCNS(=O)(=O)c2cccc(Cl)c2)cc1 | 64 to 66
O=c1c(=NO)c2ccccc2oc2cc(F)ccc12 | 196 to 198
O=C(NCCO)/C(=C/c1ccc(OC(F)(F)F)cc1)NC(=O)c1ccc(OCC2CCC2)cc1 | 168 to 170
CCC1(CCCCN2CCN(c3ccc(Cl)cc3)CC2)C(=O)Nc2c(Cl)cc(Cl)cc21 (centres undefined) | 152 to 154
COc1cc(OC)c2c(=O)[nH]c(-c3cc(C)c(OCCN4Cc5ccccc5C4)c(C)c3)nc2c1 | 202
O=Cc1cccnc1Oc1ccc(Cl)c(Cl)c1 | 97 to 99
CCOC(=O)C(C)(Cc1cccnc1)S(=O)(=O)c1ccc(OC)cc1 (centres undefined) | 58
Cc1nn(Cc2ccccc2)c(=O)[nH]c1=O | 141 to 142
CCCCN1C(=O)CC(c2cc(C(C)(C)C)c(O)c(C(C)(C)C)c2)C1=O (centres undefined) | 109 to 112
CC12CCC(O)CC1=CCC1C2CCC2(C)C(=C(F)CO)CCC12 (centres undefined) | 198 to 203
Cn1nc2c(oc3cc(Cl)ccc32)c1N | 210 to 211
CC1NC(=O)N(c2ccc(F)c(Cl)c2)C1=O (centres undefined) | 174 to 176
CCOC(=O)C(=O)Nc1ccc(Cl)cc1C(F)(F)F | 55 to 58
Cc1nc(-c2ccc3c(=O)n(CC(C)C)c(CNC(=O)OC(C)(C)C)c(-c4ccccc4)c3c2)sc1C(=O)O | 184 to 186
Cc1ccc(N)c(C(=O)Nc2cccnc2Cl)c1 | 187 to 190
CC(C)N(CCCN1C(=O)C(=O)c2ccccc21)C(C)C | 49 to 50
O=C(c1ccc(I)cc1)c1ccc2nc(Cl)nc(-c3cccc(Cl)c3)c2c1 | 153
CCc1nn(C2CCCC2)c(NC(=O)c2ccnc3ccccc23)c1C#N | 156 to 161
C=C(C)C(=O)OC(c1ccccc1)(c1ccccc1)c1ccncc1 | 98.5 to 99.5
COCCNc1cccc(C(N)=O)c1 | 89 to 91
